This note sets out measurements from patent US8329739B2, “Phenylimidazole compounds” (Otsuka Pharmaceutical Factory, Inc., priority 2009, dated 2012).

SMILES strings stand for the structures.

The nature of data set [1]: Lipid-improving action in SD rats: blood biochemical examinations (triglyceride, HDL-cholesterol). Type of data set: in vivo. The following applies: Rattus norvegicus, po, 100 mg/kg orally every day for 5 days or 2 weeks, plasma 4 hours after final administration, vs control group, read-out: Rate of increase in HDL-cholesterol levels (%). As for the experimental part:
(§1) 8-week-old SD rats (Japan Charles River: average body weight of about 350 g) were used. 5% aqueous gum arabic suspension, which was prepared such that the dosage of a compound of the present invention was 100 mg/kg body weight, was orally administered to the experimental group in an amount of 5 ml/kg body weight. 5% aqueous gum arabic suspension (not containing any compounds of the present invention) was orally administered to the control group in an amount of 5 ml/kg body weight. The rats were grouped according to their body weight at 8 weeks of age such that each group had 5 rats. The test compounds were orally administered every day at a fixed time for 5 days or 2 weeks, starting when the rats were 9 weeks old. Body weight was regularly measured during the period of oral administration, and the body weight gain-inhibiting effect was observed. 4 hours after the final administration of the test compound, blood was collected from the vein, plasma was separated from the collected blood, and blood biochemical examinations (triglyceride, HDL-cholesterol) were carried out.
Blood biochemical examinations of rats in the control group and the experimental group were performed. The rates of change (%) were calculated according to the following formulae from the measured values obtained from the blood biochemical examinations. […] Rate of decrease in triglyceride levels (%)=[(mean value of the control group)−(mean value of the experimental group)]/(mean value of the control group)×100 Rate of increase in HDL-cholesterol levels (%)=[(mean value of the experimental group)−(mean value of the control group)]/(mean value of the control group)×100

A short description of data set [2]: Body weight gain-inhibiting effect in normal SD rats. Type of data set: in vivo. The following applies: Rattus norvegicus, po, 100 mg/kg orally every day for 5 days or 2 weeks, vs control group, read-out: Rate of inhibition of body weight gain (%). As for the experimental part: as §1
The rate of inhibition of body weight gain (%) was calculated from the measured body weights of rats in the control group and the experimental group, according to the following formula. […] Rate of inhibition of body weight gain (%)=[(mean value of the control group)−(mean value of the experimental group)]/(mean value of the control group)×100

The target of another data set is T1, LPL (lipoprotein lipase) (Mus musculus, UniProt P11152).
T1 construct: endogenous in cells; host or cells: C2C12 cells, differentiated
T1 sequence (P11152 28-474): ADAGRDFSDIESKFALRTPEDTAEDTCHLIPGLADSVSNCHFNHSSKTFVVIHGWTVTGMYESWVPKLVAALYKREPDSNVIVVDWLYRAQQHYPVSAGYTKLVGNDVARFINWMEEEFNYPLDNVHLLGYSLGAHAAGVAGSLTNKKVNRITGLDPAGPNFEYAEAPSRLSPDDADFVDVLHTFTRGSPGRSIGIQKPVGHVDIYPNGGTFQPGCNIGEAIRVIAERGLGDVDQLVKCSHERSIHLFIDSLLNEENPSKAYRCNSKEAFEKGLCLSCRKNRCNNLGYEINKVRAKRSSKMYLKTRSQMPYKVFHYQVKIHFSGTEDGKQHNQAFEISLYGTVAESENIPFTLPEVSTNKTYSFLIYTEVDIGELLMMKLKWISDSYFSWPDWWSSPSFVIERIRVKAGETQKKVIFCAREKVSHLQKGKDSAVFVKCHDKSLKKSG
The data set is described as follows: Confirmation test of LPL activation effect in mouse skeletal muscle cells (C2C12 cells). Type of data set: cell-based. The following applies: 8 hours exposure, vs control group. The method in brief:
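Differentiated human skeletal muscle myoblasts or mouse C2C12 cells were exposed to compound at 10 μM or 30 μM in 0.3% DMSO medium for 8 h, then LPL was released with heparin-containing Tris-HCl buffer (10 min, 37° C). Supernatant LPL activity was taken as the fluorescence increase 10–70 min after adding substrate; % increase is calculated versus the DMSO control mean.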

`COc1cc(-c2c[nH]c(-c3ccc(F)cc3)n2)ccc1OCc1ccc(Br)cc1F.Cl` [Example 52] returned a melting point of 228 to 233 °C. In data set [1], the change in vivo at 100 mg/kg amounted to 36%. For the same molecule, the inhibition in vivo at 100 mg/kg in data set [2] is 6%.

`COc1cc(-c2c[nH]c(-c3cccs3)n2)ccc1OCc1ccc(Br)cc1F` [Example 67] showed a melting point of 177 to 179 °C. In addition, the “Rate of increase in LPL activity” value at LPL (lipoprotein lipase) (amount of addition 10 μM) is given as 22%. Further, the “Rate of increase in LPL activity” value on LPL (lipoprotein lipase) (amount of addition 30 μM) is recorded as 34%. Further, the change in vivo at 100 mg/kg in data set [1] was found to be 15%. Also, in data set [2], the inhibition in vivo at 100 mg/kg turned out to be 7%.

The molecule `COc1cc(OCc2ccc(Cl)cc2)ccc1-c1c[nH]c(-c2ccsc2)n1.Cl` [Example 70] had a melting point of 238 to 241 °C. Besides, the “Rate of increase in LPL activity” value on LPL (lipoprotein lipase) (amount of addition 10 μM) came to 22%. Also, the “Rate of increase in LPL activity” value at LPL (lipoprotein lipase) (amount of addition 30 μM) worked out at 87%. Besides, the change in vivo at 100 mg/kg in data set [1] came out at 34%. Further, in data set [2], the inhibition in vivo at 100 mg/kg came to 14%.

On to `COc1cc(OCc2ccc(C#N)cc2)ccc1-c1c[nH]c(-c2cccc(C(F)(F)F)c2)n1.Cl` [Example 74], for which the melting point was in the range of 248 to 250 °C. Also, the “Rate of increase in LPL activity” value on LPL (lipoprotein lipase) (amount of addition 10 μM) is listed as 10%. In addition, the “Rate of increase in LPL activity” value on LPL (lipoprotein lipase) (amount of addition 30 μM) is 55%. The change in vivo at 100 mg/kg in data set [1] was 64%. Moreover, the inhibition in vivo at 100 mg/kg in data set [2] is 6%.

Molecule `COc1cc(OCc2ccc(Br)cc2F)ccc1-c1c[nH]c(-c2ccc(C)cc2)n1` [Example 84] showed a melting point of 160 to 162 °C. The “Rate of increase in LPL activity” value at LPL (lipoprotein lipase) (amount of addition 10 μM) was 53%. For the same molecule, the “Rate of increase in LPL activity” value on LPL (lipoprotein lipase) (amount of addition 30 μM) is listed as 97%. Besides, the change in vivo at 100 mg/kg in data set [1] came to 187%. Further, the inhibition in vivo at 100 mg/kg in data set [2] was determined as 8%.

Turning to `COc1cc(OCc2ccc(Cl)cc2)ccc1-c1c[nH]c(-c2ccc(Cl)c(Cl)c2)n1` [Example 110], the melting point fell in the range of 145 to 148 °C. Further, the “Rate of increase in LPL activity” value on LPL (lipoprotein lipase) (amount of addition 10 μM) worked out at 37%. The “Rate of increase in LPL activity” value at LPL (lipoprotein lipase) (amount of addition 30 μM) was 106%.

With `COc1cc(OCc2ccc(C#N)cc2)ccc1-c1c[nH]c(-c2ccc(Cl)c(Cl)c2)n1` [Example 111], the melting point is 137 to 140 °C. The “Rate of increase in LPL activity” value at LPL (lipoprotein lipase) (amount of addition 10 μM) was 61%. Also, the “Rate of increase in LPL activity” value on LPL (lipoprotein lipase) (amount of addition 30 μM) was found to be 81%.

In turn, `COc1cc(OCc2ccc(Cl)cc2)ccc1-c1c[nH]c(-c2ccc(F)c(F)c2)n1` [Example 112] gave a melting point of 252 to 257 °C. Further, on LPL (lipoprotein lipase) (amount of addition 10 μM), the “Rate of increase in LPL activity” value is 58%. The “Rate of increase in LPL activity” value at LPL (lipoprotein lipase) (amount of addition 30 μM) turned out to be 199%.

On to `COc1cc(OCc2ccc(Cl)cc2)ccc1-c1c[nH]c(-c2cccc(Cl)c2)n1.Cl` [Example 113], for which the melting point lay in the range of 223 to 226 °C. On LPL (lipoprotein lipase) (amount of addition 10 μM), the “Rate of increase in LPL activity” value came out at 4%. The “Rate of increase in LPL activity” value at LPL (lipoprotein lipase) (amount of addition 30 μM) was 123%.

The molecule `COc1cc(OCc2ccc(Cl)cc2)ccc1-c1c[nH]c(-c2ccc(C(C)(C)C)cc2)n1` [Example 115] had a melting point of 154 to 157 °C. In addition, the “Rate of increase in LPL activity” value at LPL (lipoprotein lipase) (amount of addition 10 μM) is reported as 62%. At LPL (lipoprotein lipase) (amount of addition 30 μM), the “Rate of increase in LPL activity” value stood at 88%.

Consider `COc1cc(OCc2ccc(C#N)cc2)ccc1-c1c[nH]c(-c2ccc(C(C)(C)C)cc2)n1` [Example 116], for which the melting point is 177 to 184 °C. Further, the “Rate of increase in LPL activity” value at LPL (lipoprotein lipase) (amount of addition 10 μM) is recorded as 36%. In addition, the “Rate of increase in LPL activity” value on LPL (lipoprotein lipase) (amount of addition 30 μM) was 84%.

Molecule `COc1cc(OCc2ccc(Cl)cc2)ccc1-c1c[nH]c(-c2cc(Cl)cc(Cl)c2)n1.Cl` [Example 118] registered a melting point of 233 to 241 °C. In addition, the “Rate of increase in LPL activity” value at LPL (lipoprotein lipase) (amount of addition 10 μM) turned out to be 80%. On LPL (lipoprotein lipase) (amount of addition 30 μM), the “Rate of increase in LPL activity” value is on record as 102%.

The molecule `COc1cc(OCc2ccc(Cl)cc2)ccc1-c1c[nH]c(-c2cccc(C(F)(F)F)c2)n1.Cl` [Example 119] showed a melting point of 231 to 236 °C. On LPL (lipoprotein lipase) (amount of addition 10 μM), the “Rate of increase in LPL activity” value came to 67%. In addition, the “Rate of increase in LPL activity” value at LPL (lipoprotein lipase) (amount of addition 30 μM) came out at 174%.

In the case of `COc1cc(OCc2ccccc2)ccc1-c1c[nH]c(-c2cc(F)cc(F)c2)n1.Cl` [Example 121], the melting point fell in the range of 247 to 249 °C. In addition, on LPL (lipoprotein lipase) (amount of addition 10 μM), the “Rate of increase in LPL activity” value was found to be 113%. Also, the “Rate of increase in LPL activity” value on LPL (lipoprotein lipase) (amount of addition 30 μM) worked out at 270%.

As for `COc1cc(OCc2ccccc2)ccc1-c1c[nH]c(-c2ccc(Cl)cc2)n1` [Example 123], the melting point lay in the range of 160 to 163 °C. Further, on LPL (lipoprotein lipase) (amount of addition 10 μM), the “Rate of increase in LPL activity” value turned out to be 11%. In addition, the “Rate of increase in LPL activity” value at LPL (lipoprotein lipase) (amount of addition 30 μM) was determined as 42%.

The molecule `COc1cc(OCc2ccccc2)ccc1-c1c[nH]c(-c2ccc(Cl)c(Cl)c2)n1.Cl` [Example 124] had a melting point of 242 to 245 °C. The “Rate of increase in LPL activity” value on LPL (lipoprotein lipase) (amount of addition 10 μM) came out at 93%. Besides, at LPL (lipoprotein lipase) (amount of addition 30 μM), the “Rate of increase in LPL activity” value was found to be 113%.

Consider `COc1cc(OCc2ccccc2)ccc1-c1c[nH]c(-c2cccc(C(F)(F)F)c2)n1` [Example 126], for which the melting point lay within 159 to 162 °C. The “Rate of increase in LPL activity” value at LPL (lipoprotein lipase) (amount of addition 10 μM) came out at 99%. In addition, the “Rate of increase in LPL activity” value at LPL (lipoprotein lipase) (amount of addition 30 μM) is 297%.

On to `COc1ccc(-c2nc(-c3ccc(OCc4ccccc4)cc3OC)c[nH]2)cc1.Cl` [Example 128], for which the melting point is 154 to 165 °C. Besides, the “Rate of increase in LPL activity” value at LPL (lipoprotein lipase) (amount of addition 10 μM) is 49%. Further, the “Rate of increase in LPL activity” value on LPL (lipoprotein lipase) (amount of addition 30 μM) is on record as 208%.

For the molecule `COc1cccc(-c2nc(-c3ccc(OCc4ccccc4)cc3OC)c[nH]2)c1.Cl` [Example 130], the melting point was in the range of 236 to 238 °C. Moreover, the “Rate of increase in LPL activity” value at LPL (lipoprotein lipase) (amount of addition 10 μM) came to 9%. In addition, the “Rate of increase in LPL activity” value at LPL (lipoprotein lipase) (amount of addition 30 μM) is 170%.

For `COc1cc(OCc2ccc(Cl)cc2F)ccc1-c1c[nH]c(-c2ccc(C(F)(F)F)cc2)n1` [Example 132], the melting point lay within 165 to 166 °C. Also, the “Rate of increase in LPL activity” value on LPL (lipoprotein lipase) (amount of addition 10 μM) was 35%. In addition, the “Rate of increase in LPL activity” value on LPL (lipoprotein lipase) (amount of addition 30 μM) came to 213%.

In turn, `COc1cc(OCc2ccc(Cl)cc2F)ccc1-c1c[nH]c(-c2ccc(F)cc2)n1.Cl` [Example 133] showed a melting point of 259 to 260 °C. The “Rate of increase in LPL activity” value on LPL (lipoprotein lipase) (amount of addition 10 μM) was determined as 63%. Also, the “Rate of increase in LPL activity” value at LPL (lipoprotein lipase) (amount of addition 30 μM) is 236%.

As for `COc1cccc(-c2nc(-c3ccc(OCc4ccc(Cl)cc4F)cc3OC)c[nH]2)c1.Cl` [Example 134], the melting point fell in the range of 245 to 249 °C. Also, the “Rate of increase in LPL activity” value at LPL (lipoprotein lipase) (amount of addition 10 μM) turned out to be 32%. For the same molecule, the “Rate of increase in LPL activity” value on LPL (lipoprotein lipase) (amount of addition 30 μM) was determined as 308%.

`COc1cc(OCc2ccc(Cl)cc2F)ccc1-c1c[nH]c(-c2ccccc2)n1.Cl` [Example 139] yielded a melting point of 249 to 251 °C. Moreover, the “Rate of increase in LPL activity” value on LPL (lipoprotein lipase) (amount of addition 10 μM) was 71%. The “Rate of increase in LPL activity” value on LPL (lipoprotein lipase) (amount of addition 30 μM) amounted to 128%.

By melting point is commonly meant the temperature of the solid-liquid transition.
